Literature values in patent US6749871B2, “Compositions for treating symptoms of urogenital/urological disorders” (Prater Herbs, L.L.C., priority 2002, dated 2004).

Test system: benign prostatic hyperplasia
Conditions: three-year clinical evaluation

SMILES: CC(C)(C)NC(=O)[C@H]1CC[C@H]2[C@@H]3CC[C@H]4NC(=O)C=C[C@]4(C)[C@H]3CC[C@]12C [Finasteride]
- Improvement in urinary flow rate: 2.3 ml per second
- Participants with side effects such as decreased libido and impotence: about four to five percent
- Reduction in prostatic volume: about 27%
- Reduction in symptom score: 3.6 points
